From patent publication US20180099023A1, “METHODS OF TREATING IRON OVERLOAD” (La Jolla Pharmaceutical Company, priority 2016, published 2018)

Tests used:
Format in all cases: in vivo, human
[1] = test system: serum iron; assay: Serum iron after a single subcutaneous dose of hepcidin in patients (Example 1)
From the text: Patients were recruited for a multi-day study to observe serum iron levels following administration of hepcidin. All patients who were recruited had either refractory or hemolytic anemia or hemochromatosis. Patients are divided into cohorts and subsequently treated with hepcidin. Treatment consisted of a single subcutaneous (SC) dose of hepcidin on Day 1. Dose escalation with new cohorts occurred only after the patients at each dose level had been observed for a minimum of 3 days and no drug related toxicity had been observed. The starting dose level was 1 mg given via SC injection on Day 1. Doses ranged from 1 mg to 30 mg. Patient cohorts and dosing can be found in Table 1:
Patients were admitted to the research unit the day before the administration of study drug and discharged following assessments 48 hours post dose. Serum iron, ferritin, transferrin, total iron binding capacity, and unsaturated iron binding capacity were measured on Day 1(baseline) and Day 7 (end of study). Serum iron was also measured at 2, 4, 8, 24, and 48 hours post dosing.

[2] = test system: serum iron; assay: Hepcidin administration in patients at risk for iron overload disorders (Example 2)
Experimental: Eighteen patients at risk for iron overload disorders (i.e., refractory or hemolytic anemia or hemochromatosis) received one or two 1-mL subcutaneous injections to achieve the desired dose level (1 mg, 5 mg, 10 mg, 20 mg, or 30 mg). Hepcidin concentration ranged from 1 to 15 mg/mL.

[3] = test system: serum iron; assay: Hepcidin administration in healthy subjects (Example 3)
Experimental: This study enrolled 32 healthy adult subjects in 4 dose groups of 8 subjects per cohort, with 6 subjects assigned to hepcidin treatment and 2 subjects assigned to placebo in each cohort. The starting dose was 5 mg of hepcidin or placebo; subsequent dose groups received 10 mg, 20 mg, and 30 mg, respectively. Subjects received between one and three 1-mL subcutaneous (SC) injections to deliver the desired dose level. Hepcidin concentration was either 5 mg/mL or 10 mg/mL. For data analysis purposes, placebo subjects for all cohort groups were pooled.

[4] = Baseline (pre-dose) to Day 8/End of Study

hepcidin: 25-amino acid peptide with the amino acid sequence set forth in SEQ ID NO:1 (DTHFPICIFCCGCCHRSKCGMCCKT)
Percent Change in Serum Iron from Baseline to Hour 8 ([1]; 1 mg single SC dose, n = 3, patients with refractory or hemolytic anemia or hemochromatosis): −14.2% (p = 0.203) | dose response of serum iron reduction ([1]; 1 mg to 20 mg, FIG. 1, p-0.009 for dose response): dose-dependent, statistically significant reduction in serum iron | Percent Change in Serum Iron from Baseline to Hour 8 ([1]; 5 mg single SC dose, n = 3, patients with refractory or hemolytic anemia or hemochromatosis): −26.7% (p = 0.380) | Percent Change in Serum Iron from Baseline to Hour 8 ([1]; 10 mg single SC dose, n = 3, patients with refractory or hemolytic anemia or hemochromatosis): −45.5% (p = 0.077) | reduction of serum iron from baseline to hour 8 ([1]; 20 mg dose level, p=0.001): 55.7% | Percent Change in Serum Iron from Baseline to Hour 8 ([1]; 20 mg single SC dose, n = 6, patients with refractory or hemolytic anemia or hemochromatosis): −55.7% (p = 0.001) | reduction of serum iron from baseline to the end of day 7 ([1]; subjects administered 1 mg, 5 mg, 10 mg or 20 mg, serum iron had not returned to baseline through day 7): 18.0% | serum iron rebound ([1]; subjects administered at least 30 mg): rebound effect which resulted in above-baseline serum iron levels within 48 hours of treatment | dose response of serum iron decrease ([2]; 1 mg to 30 mg SC): greater decrease in serum iron at higher doses | Mean maximum percentage reduction in serum iron ([2]; 20-mg dose group, 8 hours post-dose): 58% | TSAT % level change [2, 4]: Decreases | ferritin level change [2, 4]: Decreases | total iron binding capacity (TIBC) change [2, 4]: Decreases | transferrin level change [2, 4]: Decreases | serum iron levels compared to baseline ([2]; all five dose groups (1, 5, 10, 20, 30 mg SC)): decrease in serum iron levels compared to baseline was generally observed | duration of serum iron reduction ([2]; most patients): sustained up to Day 8 in most patients | anti-drug antibodies ([2]; patients at risk for iron overload disorders): No anti-drug antibodies were detected | Unsaturated iron binding capacity (UIBC) change from baseline ([3]; Day 8): no trends in changes from baseline | Ferritin change from baseline ([3]; Day 8, all treatment groups): increased | TSAT % change from baseline ([3]; Day 8, all treatment groups): increased | total iron binding capacity (TIBC) change from baseline ([3]; Day 8, all treatment groups): increased | transferrin change from baseline ([3]; Day 8, all treatment groups): increased | anti-drug antibodies ([3]; healthy subjects): No anti-drug antibodies were detected | maximum reduction in serum iron, 20 mg versus 30 mg ([3]; healthy subjects): no apparent difference | time for serum iron levels to return to baseline ([3]; healthy subjects): < 48 h | dose response of serum iron reduction ([3]; healthy subjects, 5 to 30 mg): larger reductions in serum iron generally associated with increases in dose up to 20 mg
